Tests used:
Assay in all cases: biochemical
Parameters in all cases: KINOMEscan competition binding panel, per cent of control
Settings in all cases: read-out: %Ctrl @ 2800nM
EGFR(G719S) = EGFR(G719S) (Homo sapiens, UniProt P00533, G719S)
Method in brief: (§1)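 Values are expressed as percent of control, calculated as ((test − positive control)/(negative control − positive control)) × 100, so lower numbers mean stronger hits. Binding was measured by KINOMEscan competition assay in a 450-kinase human panel including disease mutants, using the contractor's validated protocol.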

NDR2 = target: T1, NDR2 (Homo sapiens, UniProt Q9Y2H1)
T1 construct: gene STK38L
Method in brief: as §1

ASK1 = target: T2, ASK1 (Homo sapiens, UniProt Q99683)
T2 construct: gene MAP3K5
T2 sequence (Q99683 whole entry): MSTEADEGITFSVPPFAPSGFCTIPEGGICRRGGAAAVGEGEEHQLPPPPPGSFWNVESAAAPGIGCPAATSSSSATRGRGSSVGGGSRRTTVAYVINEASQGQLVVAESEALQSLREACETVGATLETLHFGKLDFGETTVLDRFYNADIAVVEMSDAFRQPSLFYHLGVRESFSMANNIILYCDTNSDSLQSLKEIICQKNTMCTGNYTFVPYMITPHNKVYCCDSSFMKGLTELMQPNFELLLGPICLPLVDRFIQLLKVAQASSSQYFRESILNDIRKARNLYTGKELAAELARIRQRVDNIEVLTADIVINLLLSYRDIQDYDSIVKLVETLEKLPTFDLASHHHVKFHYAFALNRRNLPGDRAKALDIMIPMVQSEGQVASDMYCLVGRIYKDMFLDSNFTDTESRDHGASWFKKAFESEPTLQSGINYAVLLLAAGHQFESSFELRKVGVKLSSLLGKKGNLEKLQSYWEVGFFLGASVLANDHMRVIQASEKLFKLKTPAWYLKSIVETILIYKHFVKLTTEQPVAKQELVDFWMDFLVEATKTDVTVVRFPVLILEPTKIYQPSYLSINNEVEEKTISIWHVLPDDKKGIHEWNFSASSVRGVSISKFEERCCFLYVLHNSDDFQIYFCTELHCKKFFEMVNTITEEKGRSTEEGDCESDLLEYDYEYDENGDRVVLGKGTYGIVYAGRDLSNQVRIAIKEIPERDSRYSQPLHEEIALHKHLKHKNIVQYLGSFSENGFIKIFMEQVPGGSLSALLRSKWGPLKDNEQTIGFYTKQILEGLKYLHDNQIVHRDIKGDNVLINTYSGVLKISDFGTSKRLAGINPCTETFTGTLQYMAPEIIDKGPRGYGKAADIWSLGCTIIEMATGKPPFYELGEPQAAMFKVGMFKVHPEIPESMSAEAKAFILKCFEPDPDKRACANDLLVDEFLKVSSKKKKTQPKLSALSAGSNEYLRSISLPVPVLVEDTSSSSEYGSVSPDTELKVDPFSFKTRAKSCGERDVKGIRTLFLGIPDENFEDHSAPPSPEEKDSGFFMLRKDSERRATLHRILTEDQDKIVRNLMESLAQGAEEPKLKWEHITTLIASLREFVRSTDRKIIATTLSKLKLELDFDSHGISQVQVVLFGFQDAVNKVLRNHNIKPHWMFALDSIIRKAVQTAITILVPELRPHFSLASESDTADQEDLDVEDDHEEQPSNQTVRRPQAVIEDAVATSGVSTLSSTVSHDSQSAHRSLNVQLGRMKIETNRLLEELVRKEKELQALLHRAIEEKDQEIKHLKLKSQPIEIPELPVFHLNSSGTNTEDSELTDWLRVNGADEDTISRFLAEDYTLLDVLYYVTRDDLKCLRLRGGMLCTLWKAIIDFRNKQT
Method in brief: as §1

FGFR2 = FGFR2 (Homo sapiens, UniProt P21802)
Method in brief: as §1

RIPK2 = RIPK2 (Homo sapiens, UniProt O43353)
Method in brief: as §1

GCN2(Kin.Dom.2,S808G) = target: T3, GCN2(Kin.Dom.2,S808G) (Homo sapiens, UniProt Q9P2K8, S808G)
T3 construct: gene EIF2AK4; Kin.Dom.2
T3 sequence (Q9P2K8 whole entry S808G): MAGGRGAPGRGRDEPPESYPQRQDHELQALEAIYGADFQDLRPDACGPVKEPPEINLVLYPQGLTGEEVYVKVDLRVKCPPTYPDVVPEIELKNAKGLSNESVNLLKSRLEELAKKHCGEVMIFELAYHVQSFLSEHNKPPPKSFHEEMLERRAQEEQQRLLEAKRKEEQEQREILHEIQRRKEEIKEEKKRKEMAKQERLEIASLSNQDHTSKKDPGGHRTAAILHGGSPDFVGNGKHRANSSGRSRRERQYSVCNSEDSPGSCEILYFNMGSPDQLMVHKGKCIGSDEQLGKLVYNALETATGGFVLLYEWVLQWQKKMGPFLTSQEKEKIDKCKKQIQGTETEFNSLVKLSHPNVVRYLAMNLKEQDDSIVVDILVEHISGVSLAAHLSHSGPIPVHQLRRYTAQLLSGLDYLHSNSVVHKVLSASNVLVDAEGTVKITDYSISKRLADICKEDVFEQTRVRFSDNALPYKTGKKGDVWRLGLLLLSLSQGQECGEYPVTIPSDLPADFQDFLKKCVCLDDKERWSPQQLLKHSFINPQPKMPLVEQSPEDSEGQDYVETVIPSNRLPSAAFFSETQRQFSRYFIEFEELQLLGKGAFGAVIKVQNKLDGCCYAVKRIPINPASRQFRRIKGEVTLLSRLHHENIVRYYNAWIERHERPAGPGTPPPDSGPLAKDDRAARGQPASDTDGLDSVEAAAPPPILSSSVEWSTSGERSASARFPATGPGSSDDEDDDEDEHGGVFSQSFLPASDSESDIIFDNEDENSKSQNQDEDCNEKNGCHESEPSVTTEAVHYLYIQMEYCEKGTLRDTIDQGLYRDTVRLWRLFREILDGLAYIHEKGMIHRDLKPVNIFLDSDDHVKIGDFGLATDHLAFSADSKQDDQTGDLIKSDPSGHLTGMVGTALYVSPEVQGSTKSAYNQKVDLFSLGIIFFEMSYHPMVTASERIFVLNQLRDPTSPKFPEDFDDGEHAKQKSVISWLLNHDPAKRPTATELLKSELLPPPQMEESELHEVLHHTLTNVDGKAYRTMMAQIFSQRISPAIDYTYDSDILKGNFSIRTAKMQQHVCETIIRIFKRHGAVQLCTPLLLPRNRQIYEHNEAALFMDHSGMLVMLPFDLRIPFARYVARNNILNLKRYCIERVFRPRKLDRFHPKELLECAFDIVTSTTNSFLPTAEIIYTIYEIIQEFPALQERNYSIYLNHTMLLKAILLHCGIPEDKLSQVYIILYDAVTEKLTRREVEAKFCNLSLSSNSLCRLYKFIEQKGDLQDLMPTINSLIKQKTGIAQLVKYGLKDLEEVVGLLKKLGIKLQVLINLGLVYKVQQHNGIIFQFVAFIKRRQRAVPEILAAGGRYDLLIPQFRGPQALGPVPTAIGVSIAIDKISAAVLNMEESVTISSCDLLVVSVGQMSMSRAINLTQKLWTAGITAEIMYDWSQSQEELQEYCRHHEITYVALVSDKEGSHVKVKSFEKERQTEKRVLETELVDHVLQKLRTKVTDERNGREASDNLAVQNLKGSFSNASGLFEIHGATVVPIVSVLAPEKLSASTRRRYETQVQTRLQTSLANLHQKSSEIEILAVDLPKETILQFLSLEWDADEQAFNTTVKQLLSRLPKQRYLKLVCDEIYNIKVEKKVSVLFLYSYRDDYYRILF
Method in brief: as §1

FGFR4 = FGFR4 (Homo sapiens, UniProt P22455)
Method in brief: as §1

CAMK2D = CAMK2D (Homo sapiens, UniProt Q13557)
CAMK2D, sequence (Q13557 whole entry): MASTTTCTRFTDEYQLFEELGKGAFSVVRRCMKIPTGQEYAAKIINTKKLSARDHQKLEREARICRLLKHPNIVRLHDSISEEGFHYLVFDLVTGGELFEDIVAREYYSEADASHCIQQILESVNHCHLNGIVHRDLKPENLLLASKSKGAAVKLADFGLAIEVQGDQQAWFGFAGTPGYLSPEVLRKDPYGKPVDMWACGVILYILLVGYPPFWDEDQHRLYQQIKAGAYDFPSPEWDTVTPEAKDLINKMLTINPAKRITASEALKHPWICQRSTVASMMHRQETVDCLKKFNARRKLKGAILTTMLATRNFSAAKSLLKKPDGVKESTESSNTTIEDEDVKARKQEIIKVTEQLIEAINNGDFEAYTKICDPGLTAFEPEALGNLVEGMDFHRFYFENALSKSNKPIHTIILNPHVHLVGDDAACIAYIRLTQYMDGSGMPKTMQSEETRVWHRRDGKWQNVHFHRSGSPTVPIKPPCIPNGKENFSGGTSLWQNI
Method in brief: as §1

HPK1 = target: T4, HPK1 (Homo sapiens, UniProt Q92918)
T4 construct: gene MAP4K1
Method in brief: as §1

FES = FES (Homo sapiens, UniProt P07332)
FES, sequence (P07332 whole entry): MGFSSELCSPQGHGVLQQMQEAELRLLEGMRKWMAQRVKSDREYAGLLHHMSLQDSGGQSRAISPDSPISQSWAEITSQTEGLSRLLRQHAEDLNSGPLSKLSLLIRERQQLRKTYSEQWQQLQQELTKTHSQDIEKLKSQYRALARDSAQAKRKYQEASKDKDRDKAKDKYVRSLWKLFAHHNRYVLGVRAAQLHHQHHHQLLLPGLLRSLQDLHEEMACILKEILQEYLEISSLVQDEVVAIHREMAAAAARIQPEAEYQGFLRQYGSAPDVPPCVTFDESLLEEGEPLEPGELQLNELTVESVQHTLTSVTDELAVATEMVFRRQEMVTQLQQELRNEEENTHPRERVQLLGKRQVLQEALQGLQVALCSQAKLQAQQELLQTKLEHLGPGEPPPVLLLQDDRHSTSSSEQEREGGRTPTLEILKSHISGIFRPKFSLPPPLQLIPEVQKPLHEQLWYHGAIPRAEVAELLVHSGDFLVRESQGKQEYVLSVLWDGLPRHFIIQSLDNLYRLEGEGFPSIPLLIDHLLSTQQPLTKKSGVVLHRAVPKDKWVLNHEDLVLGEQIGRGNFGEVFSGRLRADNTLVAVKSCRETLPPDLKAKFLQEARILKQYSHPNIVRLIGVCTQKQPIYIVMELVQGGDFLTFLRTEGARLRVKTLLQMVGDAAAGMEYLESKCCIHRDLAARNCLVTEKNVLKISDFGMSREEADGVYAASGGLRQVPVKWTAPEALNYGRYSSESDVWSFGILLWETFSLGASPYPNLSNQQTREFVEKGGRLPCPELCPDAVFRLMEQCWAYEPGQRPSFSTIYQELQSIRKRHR
Method in brief: as §1

PIM3 = PIM3 (Homo sapiens, UniProt Q86V86)
Method in brief: as §1

PRKD2 = PRKD2 (Homo sapiens, UniProt Q9BZL6)
Method in brief: as §1

ADCK3 = target: T5, ADCK3 (Homo sapiens, UniProt Q8NI60)
T5 construct: gene COQ8A
Method in brief: as §1

CAMK1 = CAMK1 (Homo sapiens, UniProt Q14012)
Method in brief: as §1

PIK3CA(E542K) = PIK3CA(E542K) (Homo sapiens, UniProt P42336, E542K)
Method in brief: as §1

PAK1 = PAK1 (Homo sapiens, UniProt Q13153)
Method in brief: as §1

MST3 = target: T6, MST3 (Homo sapiens, UniProt Q9Y6E0)
T6 construct: gene STK24
Method in brief: as §1

[1] = target: T7, JAK1(JH2domain-pseudokinase) (Homo sapiens, UniProt P23458)
T7 construct: JH2domain-pseudokinase
Method in brief: as §1

CDKL3 = CDKL3 (Homo sapiens, UniProt Q8IVW4)
Method in brief: as §1

CDK11 = target: T8, CDK11 (Homo sapiens, UniProt Q9BWU1)
T8 construct: gene CDK19
Method in brief: as §1

PRKCI = PRKCI (Homo sapiens, UniProt P41743)
Method in brief: as §1

SBK1 = SBK1 (Homo sapiens, UniProt Q52WX2)
SBK1, sequence (Q52WX2 whole entry): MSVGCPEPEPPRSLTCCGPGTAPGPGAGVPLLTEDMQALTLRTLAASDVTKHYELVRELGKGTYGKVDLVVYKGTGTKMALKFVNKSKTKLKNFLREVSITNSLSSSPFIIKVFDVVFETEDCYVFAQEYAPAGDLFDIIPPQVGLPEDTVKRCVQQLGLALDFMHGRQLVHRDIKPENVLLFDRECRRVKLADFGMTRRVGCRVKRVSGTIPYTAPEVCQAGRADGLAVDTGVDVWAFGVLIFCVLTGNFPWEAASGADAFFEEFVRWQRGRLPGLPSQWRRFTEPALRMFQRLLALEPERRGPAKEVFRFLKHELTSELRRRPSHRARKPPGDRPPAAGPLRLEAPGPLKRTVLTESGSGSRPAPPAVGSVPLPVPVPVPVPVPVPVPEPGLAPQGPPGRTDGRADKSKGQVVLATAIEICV
Method in brief: as §1

[2] = target: T9, ABL1(Y253F)-phosphorylated (Homo sapiens, UniProt P00519, Y253F)
T9 construct: phosphorylated
Method in brief: as §1

TGFBR1 = TGFBR1 (Homo sapiens, UniProt P36897)
Method in brief: as §1

KIT(D816V) = KIT(D816V) (Homo sapiens, UniProt P10721, D816V)
Method in brief: as §1

MAST1 = MAST1 (Homo sapiens, UniProt Q9Y2H9)
Method in brief: as §1

[O-][S@@+](Cc1cncs1)C(c1ccccc1)c1ccccc1 [S-CE-123, (S)-5-((Benzhydrylsulfinyl)Methyl)Thiazole]
remaining binding at 2.8 µM (EGFR(G719S)): 77% | remaining binding at 2.8 µM (NDR2): 82% | remaining binding at 2.8 µM (ASK1): 84% | remaining binding at 2.8 µM (FGFR2): 87% | remaining binding at 2.8 µM (RIPK2): 100% | remaining binding at 2.8 µM (GCN2(Kin.Dom.2,S808G)): 100% | remaining binding at 2.8 µM (FGFR4): 100% | remaining binding at 2.8 µM (CAMK2D): 88% | remaining binding at 2.8 µM (HPK1): 89% | remaining binding at 2.8 µM (FES): 95% | remaining binding at 2.8 µM (PIM3): 100% | remaining binding at 2.8 µM (PRKD2): 98% | remaining binding at 2.8 µM (ADCK3): 87% | remaining binding at 2.8 µM (CAMK1): 97% | remaining binding at 2.8 µM (PIK3CA(E542K)): 88% | remaining binding at 2.8 µM (PAK1): 92% | remaining binding at 2.8 µM (MST3): 87% | remaining binding at 2.8 µM [1]: 92% | remaining binding at 2.8 µM (CDKL3): 81% | remaining binding at 2.8 µM (CDK11): 71% | remaining binding at 2.8 µM (PRKCI): 100% | remaining binding at 2.8 µM (SBK1): 100% | remaining binding at 2.8 µM [2]: 93% | remaining binding at 2.8 µM (TGFBR1): 86% | remaining binding at 2.8 µM (KIT(D816V)): 97% | remaining binding at 2.8 µM (MAST1): 94%

— article PMC10046369, “Low-Affinity/High-Selectivity Dopamine Transport Inhibition Sufficient to Rescue Cognitive Functions in the Aging Rat” (Biomolecules, 2023)
